# Assay results: patent publication US11339136B2 (Novartis AG, priority 2016, dated 2022)
# Molecular target: T1, hNLRP3 (Homo sapiens, UniProt Q96P20)
# T1 construct: THP-1 cells were purchased from the American Type Culture Collection; host or cells: THP-1 cells, PMA-differentiated
# Assay: IL-1β production in PMA-differentiated THP-1 cells stimulated with gramicidin
# Assay type: cell-based
# Settings: gramicidin 5 μM, IL-1β in supernatant
# Protocol: Bioassay: IL-1β Production in PMA-Differentiated THP-1 Cells Stimulated with Gramicidin. Procedure 1:
# Cell culture—THP-1 cells were purchased from the American Type Culture Collection and sub-cultured according to instructions from the supplier. Prior to experiments, cells were cultured in RPMI 1640 containing 10% heat inactivated FBS, penicillin (100 units/ml) and streptomycin (100 μg/ml), and maintained in log phase prior to experimental setup. Prior to the experiment THP-1 were treated with PMA (Phorbol 12-myristate 13-acetate) (10 μg/ml) for 24 hours. The day of the experiment the media was removed and attaching cells were treated with trypsin for 2 minutes, cells were then collected, washed with PBS (phosphate buffer saline), spin down, resuspended in 2% heat inactivated FBS with RPMI at a concentration of 1×10^6 cells/ml, and 100 ul was plated in a 96 well plate. Cells were incubated with compounds for 1 hours and then stimulated with Gramicidin (5 μM) (Enzo) for 2 hours. Cell free supernatant was collected and the production of IL-1β was evaluated by ELISA. Compounds were dissolved in dimethyl sulfoxide (DMSO) and added to the culture medium to achieve desired concentration (e.g. 100, 30, 10, 3, 1, 0.3 or 0.1 μM). A vehicle only control was run concurrently with each experiment. Final DMSO concentration was 1%.
# THP-1 cells were purchased from the American Type Culture Collection and sub-cultured according to instructions from the supplier. Prior to experiments, cells were cultured in complete RPMI 1640 (containing 10% heat inactivated FBS, penicillin (100 units/ml) and streptomycin (100 μg/ml)), and maintained in log phase prior to experimental setup. Prior to the experiment THP-1 were treated with PMA (Phorbol 12-myristate 13-acetate) (20 ng/ml) for 16-18 hours. On the day of the experiment the media was removed and adherent cells were detached with trypsin for 5 minutes. Cells were then harvested, washed with complete RPMI 1640, spun down, resuspended in RPMI 1640 (containing 2% heat inactivated FBS, penicillin (100 units/ml) and streptomycin (100 μg/ml). The cells were plated in a 384-well plate at a density of 50,000 cells/well (final assay volume 50 μl). Compounds were dissolved in dimethyl sulfoxide (DMSO) and added to the culture medium to achieve desired concentration (e.g. 100, 33, 11, 3.7, 1.2, 0.41, 0.14, 0.046, 0.015, 0.0051, 0.0017 μM). Cells were incubated with compounds for 1 hour and then stimulated with gramicidin (5 μM) (Enzo) for 2 hours. Cell free supernatant was collected and the production of IL-1β was evaluated by HTRF (cisbio). A vehicle only control was run concurrently with each experiment. Final DMSO concentration was 0.38%.
# T1 sequence (Q96P20 whole entry): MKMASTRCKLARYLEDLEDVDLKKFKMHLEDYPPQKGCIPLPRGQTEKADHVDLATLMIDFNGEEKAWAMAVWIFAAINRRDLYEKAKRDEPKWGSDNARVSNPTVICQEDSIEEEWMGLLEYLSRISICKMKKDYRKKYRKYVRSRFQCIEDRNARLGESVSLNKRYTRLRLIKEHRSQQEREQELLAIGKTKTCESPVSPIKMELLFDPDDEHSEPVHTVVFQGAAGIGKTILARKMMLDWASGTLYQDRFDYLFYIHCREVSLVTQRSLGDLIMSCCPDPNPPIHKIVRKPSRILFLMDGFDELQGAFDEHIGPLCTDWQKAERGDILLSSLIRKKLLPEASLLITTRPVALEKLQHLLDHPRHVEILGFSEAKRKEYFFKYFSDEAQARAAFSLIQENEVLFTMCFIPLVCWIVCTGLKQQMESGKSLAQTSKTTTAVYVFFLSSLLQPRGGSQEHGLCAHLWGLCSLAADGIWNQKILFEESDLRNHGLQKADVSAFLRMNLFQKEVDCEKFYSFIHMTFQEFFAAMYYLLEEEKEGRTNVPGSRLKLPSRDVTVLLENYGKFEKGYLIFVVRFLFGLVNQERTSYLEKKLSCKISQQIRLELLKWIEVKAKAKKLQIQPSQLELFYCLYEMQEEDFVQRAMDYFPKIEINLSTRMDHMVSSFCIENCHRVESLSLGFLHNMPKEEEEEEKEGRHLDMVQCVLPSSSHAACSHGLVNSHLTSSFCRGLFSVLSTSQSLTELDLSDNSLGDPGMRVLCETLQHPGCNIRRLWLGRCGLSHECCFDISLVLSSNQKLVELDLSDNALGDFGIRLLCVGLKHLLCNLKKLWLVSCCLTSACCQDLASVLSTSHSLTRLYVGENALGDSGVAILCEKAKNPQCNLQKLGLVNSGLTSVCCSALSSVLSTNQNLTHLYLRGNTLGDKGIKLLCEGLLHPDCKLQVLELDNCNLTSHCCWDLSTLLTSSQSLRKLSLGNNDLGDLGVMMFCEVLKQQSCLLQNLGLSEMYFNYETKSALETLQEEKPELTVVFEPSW
IC50 (Table 2) [nM],IC50 (Table 1) [nM],SMILES
< 1000,–,"CC(C)c1cc(F)cc(C(C)C)c1NC(=O)NS(=O)(=O)c1cc(C2(O)CC2)cs1 [Compound 204, N-(4-fluoro-2,6-diisopropylphenyl-carbamoyl)-4-(1-hydroxycyclo-propyl)thiophene-2-sulfonamide]"
5000 to 15000,–,"CCc1cc(Cl)cc(CC)c1NC(=O)NS(=O)(=O)c1ncc(C(C)(C)O)s1 [Compound 170, N-(4-chloro-2,6-diethylphenylcarbamoyl)-5-(2-hydroxypropan-2-yl) thiazole-2-sulfonamide]"
1000 to 5000,–,"CC(C)c1ccc(F)c(C(C)C)c1NC(=O)NS(=O)(=O)c1cc(C(C)(C)O)c(Cl)s1 [Compound 250, 5-chloro-N-(3-fluoro-2,6-diisopropylphenylcarbamoyl)-4-(2-hydroxypropan-2-yl)thiophene-2-sulfonamide]"
1000 to 5000,–,"CC(C)(O)c1cnc(S(=O)(=O)NC(=O)Nc2c3c(c(C#N)c4c2CCC4)CCC3)s1 [Compound 220, N-(8-cyano-1,2,3,5,6,7-hexahydros-indacen-4-ylcarbamoyl)-5-(2-hydroxypropan-2-yl)thiazole-2-sulfonamide]"
< 1000,–,"CC(C)(O)c1cc(S(=O)(=O)NC(=O)Nc2c3c(cc4c2CCC4)CCC3)oc1Cl [Compound 255, 5-chloro-N-(1,2,3,5,6,7-hexahydros-indacen-4-ylcarbamoyl)-4-(2-hydroxypropan-2-yl)furan-2-sulfonamide]"
< 1000,–,"CC(C)c1cc(C#N)cc(C(C)C)c1NC(=O)NS(=O)(=O)c1ncc(C(C)(C)O)s1 [Compound 226, N-(4-cyano-2,6-diisopropylphenyl-carbamoyl)-5-(2-hydroxypropan-2-yl)thiazole-2-sulfonamide]"
< 1000,–,"CC(C)c1cc(Cl)cc(C(C)C)c1NC(=O)NS(=O)(=O)c1cc(C(C)(C)O)c(Cl)s1 [Compound 254, 5-chloro-N-(4-chloro-2,6-diisopropylphenyl-carbamoyl)-4-(2-hydroxypropan-2-yl)thiophene-2-sulfonamide]"
< 1000,–,"CC(C)c1cc(Cl)cc(C(C)C)c1NC(=O)NS(=O)(=O)c1ccc(C2(O)CC2)s1 [Compound 196, N-(4-chloro-2,6-diisopropylphenylcarbamoyl)-5-(1-hydroxycyclopropyl) thiophene-2-sulfonamide]"
1000 to 5000,–,"CC(C)c1ccc(Cl)c(C(C)C)c1NC(=O)NS(=O)(=O)c1nc(C(C)(C)O)cs1 [Compound 144, N-(3-chloro-2,6-diisopropylphenylcarbamoyl)-4-(2-hydroxypropan-2-yl) thiazole-2-sulfonamide]"
< 1000,–,"Cc1sc(S(=O)(=O)NC(=O)Nc2c(C(C)C)cc(F)cc2C(C)C)cc1C(C)(C)O [Compound 157, N-(4-fluoro-2,6-diisopropylphenyl-carbamoyl)-4-(2-hydroxypropan-2-yl)-5-methylthiophene-2-sulfonamide]"
1000 to 5000,–,"CC(C)c1ccc(F)c(C(C)C)c1NC(=O)NS(=O)(=O)c1nc(C(C)(C)O)cs1 [Compound 145, N-(3-fluoro-2,6-diisopropylphenylcarbamoyl)-4-(2-hydroxypropan-2-yl)thiazole-2-sulfonamide]"
< 1000,–,"CC(C)c1ccc(F)c(C(C)C)c1NC(=O)NS(=O)(=O)c1cc(C2(O)CC2)cs1 [Compound 218, N-(3-fluoro-2,6-diisopropylphenyl-carbamoyl)-4-(1-hydroxycyclo-propyl)thiophene-2-sulfonamide]"
< 1000,–,"CC(C)c1cc(F)cc(C(C)C)c1NC(=O)NS(=O)(=O)c1cc(C2(O)CC2)co1 [Compound 205, N-(4-fluoro-2,6-diisopropylphenyl-carbamoyl)-4-(1-hydroxycyclo-propyl)furan-2-sulfonamide]"
5000 to 15000,–,"CC(C)c1ccc(Cl)c(C(C)C)c1NC(=O)NS(=O)(=O)c1cc(C(C)(C)O)c(Cl)s1 [Compound 252, 5-chloro-N-(3-chloro-2,6-diisopropylphenylcarbamoyl)-4-(2-hydroxypropan-2-yl)thiophene-2-sulfonamide]"
< 1000,–,"CC(C)c1ccc(F)c(C(C)C)c1NC(=O)NS(=O)(=O)c1ncc(C(C)(C)O)s1 [Compound 213, N-(3-fluoro-2,6-diisopropylphenyl-carbamoyl)-5-(2-hydroxypropan-2-yl)thiazole-2-sulfonamide]"
< 1000,–,O=C(Nc1c2c(cc3c1CCC3)CCC2)NS(=O)(=O)c1ncc(C2(O)CCCC2)s1 [Compound 183]

IC50 (Table 2) [nM],IC50 (Table 1) [nM],SMILES
1000 to 5000,–,"CCc1cc(C#N)cc(CC)c1NC(=O)NS(=O)(=O)c1ncc(C(C)(C)O)s1 [Compound 158, N-(4-cyano-2,6-diethylphenylcarbamoyl)-5-(2-hydroxypropan-2-yl)thiazole-2-sulfonamide]"
< 1000,–,"CC(C)(O)c1csc(S(=O)(=O)NC(=O)Nc2c3c(c(Cl)c4c2CCC4)CCC3)c1 [Compound 232, N-(8-chloro-1,2,3,5,6,7-hexahydros-indacen-4-ylcarbamoyl)-4-(2-hydroxypropan-2-yl)thiophene-2-sulfonamide]"
< 1000,–,"CC(C)c1cc(C#N)cc(C(C)C)c1NC(=O)NS(=O)(=O)c1cc(C(C)(C)O)c(Cl)s1 [Compound 251, 5-chloro-N-(4-cyano-2,6-diisopropylphenyl-carbamoyl)-4-(2-hydroxypropan-2-yl)thiophene-2-sulfonamide]"
1000 to 5000,–,"CCc1cc(F)cc(CC)c1NC(=O)NS(=O)(=O)c1cc(C(C)(C)O)cs1 [Compound 161, N-(2,6-diethyl-4-fluorophenylcarbamoyl)-4-(2-hydroxypropan-2-yl)thiophene-2-sulfonamide]"
1000 to 5000,–,"CC(C)c1ccc(C#N)c(C(C)C)c1NC(=O)NS(=O)(=O)c1ncc(C(C)(C)O)s1 [Compound 263, N-(3-cyano-2,6-diisopropylphenylcarbamoyl)-5-(2-hydroxypropan-2-yl) thiazole-2-sulfonamide]"
< 1000,–,"O=C(Nc1c2c(c(F)c3c1CCC3)CCC2)NS(=O)(=O)c1cc(C2(O)CC2)co1 [Compound 207, N-(8-fluoro-1,2,3,5,6,7-hexahydros-indacen-4-ylcarbamoyl)-4-(1-hydroxycyclo-propyl)furan-2-sulfonamide]"
1000 to 5000,–,"Cc1sc(S(=O)(=O)NC(=O)Nc2c(C(C)C)ccc(F)c2C(C)C)cc1C(C)(C)O [Compound 154, N-(3-fluoro-2,6-diisopropylphenylcarbamoyl)-4-(2-hydroxypropan-2-yl)-5-methylthiophene-2-sulfonamide]"
–,< 1000,"CC(C)c1cc(C#N)cc(C(C)C)c1NC(=O)NS(=O)(=O)c1cc(C(C)(C)O)co1 [Compound 104, N-(4-cyano-2,6-diisopropylphenyl-carbamoyl)-4-(2-hydroxypropan-2-yl)furan-2-sulfonamide]"
1000 to 5000,–,"CC(C)c1cc(C#N)cc(C(C)C)c1NC(=O)NS(=O)(=O)c1ccc(C2(O)CC2)s1 [Compound 194, N-(4-cyano-2,6-diisopropylphenylcarbamoyl)-5-(1-hydroxycyclopropyl) thiophene-2-sulfonamide]"
5000 to 15000,–,"Cc1nc(S(=O)(=O)NC(=O)Nc2c(C(C)C)cc(F)cc2C(C)C)sc1C(C)(C)O [Compound 152, N-(4-fluoro-2,6-diisopropylphenylcarbamoyl)-5-(2-hydroxypropan-2-yl)-4-methylthiazole-2-sulfonamide]"
< 1000,–,"CC(C)c1ccc(F)c(C(C)C)c1NC(=O)NS(=O)(=O)c1cc(C(C)(C)O)cs1 [Compound 228, N-(3-fluoro-2,6-diisopropylphenyl-carbamoyl)-4-(2-hydroxypropan-2-yl)thiophene-2-sulfonamide]"
1000 to 5000,–,"CC(C)c1cc(Cl)cc(C(C)C)c1NC(=O)NS(=O)(=O)c1nc(C(C)(C)O)cs1 [Compound 147, N-(4-chloro-2,6-diisopropylphenylcarbamoyl)-4-(2-hydroxypropan-2-yl)thiazole-2-sulfonamide]"
1000 to 5000,–,CC(C)c1cc(C#N)cc(C(C)C)c1NC(=O)NS(=O)(=O)c1cnc(C(C)(C)O)s1 [Compound 267]
5000 to 15000,–,Cc1nc(S(=O)(=O)NC(=O)Nc2c(C(C)C)cc(C#N)cc2C(C)C)sc1C(C)(C)O [Compound 155]
5000 to 15000,–,"CC(C)c1ccc(F)c(C(C)C)c1NC(=O)NS(=O)(=O)c1ncc(C2(O)CCCC2)s1 [Compound 168, N-(3-fluoro-2,6-diisopropylphenylcarbamoyl)-5-(1-hydroxycyclopentyl) thiazole-2-sulfonamide]"
